For the assay, the system named is WEHI-164. Description: Antiproliferative activity against mouse WEHI164 cells assessed as cell viability after 96 hrs by MTT assay. The assay is classed as functional, cell-based. Conditions: WEHI-164, 96 h. In general terms: Tetrazolium dyes change colour on reduction, which living cells bring about.
Usually IC50 stands for the point on the concentration scale where inhibition reaches its midpoint. For the molecule `CCCCCCCCCCCCCCCCCCOS(=O)(=O)[O-].[Na+]` [SODIUM OCTADECYL SULFATE], the IC50 stood at 410 µg/mL.

As to `CC(C)CCCC(CCCC(C)CCCC(C)CCOS(=O)(=O)[O-])COS(=O)(=O)[O-].[Na+].[Na+]` (stereo not given), the IC50 was 300 µg/mL. For `CCCCCCOS(=O)(=O)[O-].[Na+]` [SODIUM HEXYL SULFATE] the value was 150 µg/mL; for `CCCCCCCCCCCCCCCCCOS(=O)(=O)[O-].[Na+]` [SODIUM HEPTADECYL SULFATE], 400 µg/mL; for `CC(C)CCCC(CCCC(C)CCC[C@H](C)COS(=O)(=O)[O-])COS(=O)(=O)[O-].[Na+].[Na+]` (stereo not given in full), 230 µg/mL.

(Values after ChEMBL document CHEMBL1155710, “New bioactive sulfated metabolites from the Mediterranean tunicate Sidnyum turbinatum” (J Nat Prod, 2001).)
